Laboratory results published in ChEMBL document CHEMBL4270561, “Biological activity of doubly modified salinomycin analogs - Evaluation in vitro and ex vivo” (Eur J Med Chem, 2018).
Active and inactive are the calls of the source. The calls are words filed in the database; no cut-off is given here.

Assays:
[1] = Cell cycle arrest in human ALL5 cells assessed as accumulation at S-phase at 5 times antiproliferative IC50 after 24 hrs by propidium iodide staining based flow cytometry (reference value: 6.76%); assay type: functional
[2] = Cell cycle arrest in human ALL5 cells assessed as accumulation at sub-G1 phase at 5 times antiproliferative IC50 after 96 hrs by propidium iodide staining based flow cytometry (reference value: 12%); assay type: functional
MCF7 = assay: Antiproliferative activity against human MCF7 cells after 72 hrs by SRB assay; assay type: functional, cell-based; conditions: MCF7, 72 h
MCF-10A [3] = assay: Antiproliferative activity against human MCF10A cells at 100 ug/ml after 72 hrs by SRB assay relative to control; assay type: cell-based
[4] = Antiproliferative activity against human LoVo/DX cells after 72 hrs by SRB assay; assay type: functional, cell-based
SK-BR-3 [5] = assay: Antiproliferative activity against human SK-BR-3 cells at 100 ug/ml after 72 hrs by SRB assay relative to control; assay type: functional
[6] = Cell cycle arrest in human ALL5 cells assessed as accumulation at G2/M-phase at 5 times antiproliferative IC50 after 96 hrs by propidium iodide staining based flow cytometry (reference value: 11.1%); assay type: functional
LoVo [7] = assay: Antiproliferative activity against human LoVo cells after 72 hrs by SRB assay; assay type: functional, cell-based
[8] = Cell cycle arrest in human ALL5 cells assessed as accumulation at S-phase at 5 times antiproliferative IC50 after 48 hrs by propidium iodide staining based flow cytometry (reference value: 9.82%); assay type: functional
[9] = Cell cycle arrest in human ALL5 cells assessed as accumulation at G2/M-phase at 5 times antiproliferative IC50 after 24 hrs by propidium iodide staining based flow cytometry (reference value: 7.98%); assay type: functional
[10] = Resistance index, ratio of IC50 for human LoVo/DX cells to IC50 for human LoVo cells; assay type: functional
[11] = Cell cycle arrest in human ALL5 cells assessed as accumulation at G0/G1 phase at 5 times antiproliferative IC50 after 96 hrs by propidium iodide staining based flow cytometry (reference value: 69.8%); assay type: functional
[12] = Cell cycle arrest in human ALL5 cells assessed as accumulation at G0/G1 phase at 5 times antiproliferative IC50 after 24 hrs by propidium iodide staining based flow cytometry (reference value: 79.7%); assay type: functional
[13] = Antiproliferative activity against human ALL5 cells after 120 hrs by MTT assay; assay type: functional, cell-based; conditions: ALL5, 120 h
[14] = Cell cycle arrest in human ALL5 cells assessed as accumulation at sub-G1 phase at 5 times antiproliferative IC50 after 24 hrs by propidium iodide staining based flow cytometry (reference value: 6.07%); assay type: functional
[15] = Cell cycle arrest in human ALL5 cells assessed as accumulation at S-phase at 5 times antiproliferative IC50 after 96 hrs by propidium iodide staining based flow cytometry (reference value: 7.52%); assay type: functional
[16] = Cell cycle arrest in human ALL5 cells assessed as accumulation at G2/M-phase at 5 times antiproliferative IC50 after 48 hrs by propidium iodide staining based flow cytometry (reference value: 13.2%); assay type: functional
[17] = Cell cycle arrest in human ALL5 cells assessed as accumulation at sub-G1 phase at 5 times antiproliferative IC50 after 48 hrs by propidium iodide staining based flow cytometry (reference value: 7.8%); assay type: functional
JIMT-1 [18] = assay: Antiproliferative activity against human JIMT1 cells after 72 hrs by SRB assay; assay type: functional, cell-based; conditions: JIMT-1, 72 h
[19] = Cell cycle arrest in human ALL5 cells assessed as accumulation at G0/G1 phase at 5 times antiproliferative IC50 after 48 hrs by propidium iodide staining based flow cytometry (reference value: 69.6%); assay type: functional
[20] = Antiproliferative activity against human ALL5 cells at 10 uM after 120 hrs by MTT assay relative to control; assay type: functional
[21] = Selectivity index, ratio of IC50 for human MCF10A cells to IC50 for human JIMT1 cells; assay type: toxicity; conditions: MCF10A cells versus JIMT1 cells, read-out: Ratio IC50
[22] = Selectivity index, ratio of IC50 for human MCF10A cells to IC50 for human MCF7 cells; assay type: toxicity; conditions: MCF10A cells versus MCF7 cells, read-out: Ratio IC50
MCF-10A [23] = assay: Antiproliferative activity against human MCF10A cells after 72 hrs by SRB assay; assay type: cell-based
[24] = Selectivity index, ratio of IC50 for human MCF10A cells to IC50 for human LoVo cells; assay type: toxicity; conditions: MCF10A cells versus LoVo cells, read-out: Ratio IC50
Breast carcinoma cell [25] = assay: Ex vivo antitumor activity against patient derived breast cancer tissue assessed as decrease in tumor cell proliferation at 6.2 uM by Ki-67 staining based immunohistochemical analysis; assay type: functional; conditions: Homo sapiens, TDE = time-dependent effect
[26] = Selectivity index, ratio of IC50 for human MCF10A cells to IC50 for human LoVo/DX cells; assay type: toxicity; conditions: MCF10A cells versus LoVo/DX cells, read-out: Ratio IC50
Breast carcinoma cell [27] = assay: Ex vivo antitumor activity against patient derived breast cancer tissue assessed as increase in number of dead tumor cells at 6.2 uM by H and E staining based immunohistochemical analysis; assay type: functional; conditions: Homo sapiens, TDE = time-dependent effect
SK-BR-3 [28] = assay: Antiproliferative activity against human SK-BR-3 cells after 72 hrs by SRB assay; assay type: functional, cell-based; conditions: SK-BR-3, 72 h
[29] = Selectivity index, ratio of IC50 for human MCF10A cells to IC50 for human SK-BR-3 cells; assay type: toxicity; conditions: MCF10A cells versus SK-BR-3 cells, read-out: Ratio IC50
[30] = Selectivity index, ratio of IC50 for human MCF10A cells to IC50 for human ALL5 cells; assay type: toxicity; conditions: MCF10A cells versus ALL5 cells, read-out: Ratio IC50
Homo sapiens [31] = organism: Homo sapiens; assay: Induction of apoptosis in human ALL5 cells assessed as increase in p53 expression at 9.5 uM up to 96 hrs by immunoblot analysis; assay type: functional, cell-based
Homo sapiens [32] = organism: Homo sapiens; assay: Induction of apoptosis in human ALL5 cells assessed as increase in cleaved PARP expression at 9.5 uM after 96 hrs by immunoblot analysis; assay type: functional, cell-based
LoVo [33] = assay: Antiproliferative activity against human LoVo cells at 100 ug/ml after 72 hrs by SRB assay relative to control; assay type: functional
JIMT-1 [34] = assay: Antiproliferative activity against human JIMT1 cells at 100 ug/ml after 72 hrs by SRB assay relative to control; assay type: functional
Homo sapiens [35] = organism: Homo sapiens; assay: Induction of apoptosis in human ALL5 cells assessed as increase in cleaved PARP expression at 9.5 uM up to 48 hrs by immunoblot analysis; assay type: functional, cell-based
Homo sapiens [36] = organism: Homo sapiens; assay: Induction of apoptosis in human ALL5 cells assessed as increase in cleaved PARP expression at 0.2 uM up to 96 hrs by immunoblot analysis; assay type: functional, cell-based
Homo sapiens [37] = organism: Homo sapiens; assay: Induction of apoptosis in human ALL5 cells assessed as increase in p53 expression at 0.2 uM up to 96 hrs by immunoblot analysis; assay type: functional, cell-based

SMILES	Activity [1] [%]	Activity [2] [%]	IC50 (MCF7) [µM]	Activity (MCF-10A [3])	IC50 [4] [µM]	Activity [6] [%]	IC50 (LoVo [7]) [µM]	Activity [8] [%]	Activity [9] [%]	Ratio IC50 [10]	Activity [11] [%]	Activity [12] [%]	IC50 [13] [µM]	Activity [14] [%]	Activity [15] [%]	Activity [16] [%]	Activity [17] [%]	IC50 (JIMT-1 [18]) [µM]	Activity [19] [%]	IC50 (SK-BR-3 [28]) [µM]	further results
C#CCOC(=O)[C@H](CC)[C@H]1CC[C@H](C)[C@H]([C@@H](C)[C@H](O)[C@H](C)C(=O)[C@H](CC)[C@H]2O[C@]3(C=C[C@@H](OC(C)=O)[C@]4(CC[C@@](C)([C@H]5CC[C@](O)(CC)[C@H](C)O5)O4)O3)[C@H](C)C[C@@H]2C)O1	5.99	26.8	7.4	<= 50%	5.2	10.6	12	5.62	9.12	0.43	57.7	80.2	2.6	5.15	5.06	11.5	9.68	27	73.5		Activity (SK-BR-3 [5]): <=50%
CC[C@@H](C(=O)[C@@H](C)[C@@H](O)[C@H](C)[C@@H]1O[C@@H]([C@@H](CC)C(=O)OCC(F)(F)F)CC[C@@H]1C)[C@H]1O[C@]2(C=C[C@@H](OC(C)=O)[C@]3(CC[C@@](C)([C@H]4CC[C@](O)(CC)[C@H](C)O4)O3)O2)[C@H](C)C[C@@H]1C			12	<= 50%	18		8.7			2.1								39			Activity (SK-BR-3 [5]): <=50%; Activity [20]: <=50%
CC[C@@H](C(=O)[C@@H](C)[C@@H](O)[C@H](C)[C@@H]1O[C@@H]([C@@H](CC)C(=O)O)CC[C@@H]1C)[C@H]1O[C@]2(C=C[C@@H](O)[C@]3(CC[C@@](C)([C@H]4CC[C@](O)(CC)[C@H](C)O4)O3)O2)[C@H](C)C[C@@H]1C [SALINOMYCIN]			1.5		0.69		0.44			1.6			2.4					1.3		0.89	selectivity ratio [21]: 35; selectivity ratio [22]: 31; IC50 (MCF-10A [23]): 46 µM; selectivity ratio [24]: 105; Activity (Breast carcinoma cell [25]): Tde; selectivity ratio [26]: 67; Activity (Breast carcinoma cell [27]): Tde; selectivity ratio [29]: 52; selectivity ratio [30]: 19
CCOC(=O)O[C@@H]1C=C[C@]2(O[C@H]([C@@H](CC)C(=O)[C@@H](C)[C@@H](O)[C@H](C)[C@@H]3O[C@@H]([C@@H](CC)C(=O)NCCc4ccc(F)cc4)CC[C@@H]3C)[C@@H](C)C[C@H]2C)O[C@@]12CC[C@@](C)([C@H]1CC[C@](O)(CC)[C@H](C)O1)O2	4.95	27.5	3.9	<= 50%	6.5	1.94	4.7	1.02	6.54	1.4	69.4	82.5	3.7	6.39	1.35	4.85	7.78	7	86.4	9.9	
C#CCOC(=O)[C@H](CC)[C@H]1CC[C@H](C)[C@H]([C@@H](C)[C@H](O)[C@H](C)C(=O)[C@H](CC)[C@H]2O[C@]3(C=C[C@@H](OC(=O)OCC)[C@]4(CC[C@@](C)([C@H]5CC[C@](O)(CC)[C@H](C)O5)O4)O3)[C@H](C)C[C@@H]2C)O1	5.6	19.8	38	<= 50%	8.1	7.59		5.9	8.79		67.8	81.2	1.9	4.82	5.03	8.29	10.6		75.6		Activity (Homo sapiens [31]): Active; Activity (Homo sapiens [32]): Active; Activity (LoVo [33]): <=50%; Activity (JIMT-1 [34]): <=50%; Activity (Homo sapiens [35]): inactive; Activity (SK-BR-3 [5]): <=50%
COc1cccc2c1C(=O)c1c(O)c3c(c(O)c1C2=O)C[C@@](O)(C(=O)CO)C[C@@H]3O[C@H]1C[C@H](N)[C@H](O)[C@H](C)O1 [DOXORUBICIN]		62.7	0.26		10	2.16	0.24	3.23	8.96		31.6	78.2	0.04	8.94		2.76	27.4	0.59	66.8	0.37	Activity (Homo sapiens [36]): Active; IC50 (MCF-10A [23]): 0.58 µM; Activity (Homo sapiens [37]): Active
C#CCOC(=O)[C@H](CC)[C@H]1CC[C@H](C)[C@H]([C@@H](C)[C@H](O)[C@H](C)C(=O)[C@H](CC)[C@H]2O[C@]3(C=C[C@@H](OC(=O)NCC)[C@]4(CC[C@@](C)([C@H]5CC[C@](O)(CC)[C@H](C)O5)O4)O3)[C@H](C)C[C@@H]2C)O1	5.16	43.6	5	<= 50%	3.4	10.9	5.2	5.8	9.7	0.65	42	78.8	6.9	6.58	3.67	13.8	19.6	7.4	61.1	25	
C#CCNC(=O)[C@H](CC)[C@H]1CC[C@H](C)[C@H]([C@@H](C)[C@H](O)[C@H](C)C(=O)[C@H](CC)[C@H]2O[C@]3(C=C[C@@H](O)[C@]4(CC[C@@](C)([C@H]5CC[C@](O)(CC)[C@H](C)O5)O4)O3)[C@H](C)C[C@@H]2C)O1			10		3.1		7.7			0.4								29		31	selectivity ratio [21]: 2.1; selectivity ratio [22]: 6.2; IC50 (MCF-10A [23]): 62 µM; selectivity ratio [24]: 8.1; selectivity ratio [26]: 20; Activity [20]: <=50%; selectivity ratio [29]: 2
